# Data taken from patent publication US20110218143A1, “COMPOSITIONS AND METHODS FOR TISSUE REPAIR” (UNIVERSITY OF FLORIDA RESEARCH FOUNDATION, priority 2007, published 2011).
# Columns and labels:
# [1] = system: stem cell populations in blood (cd34+, cd45+, Sca-1+ cells); test: FACS of cells expressing stem cell markers CD34, CD45, Sca-1 in blood samples; format: in vivo, C57BL6/J mice
# Method: Mice received either a placebo or triptolide (400 μg/kg) by intraperitoneal injection.
# Celastrol analogs administered included dihydrocelastrol, dihydrocelastrol diacetate, and pristimerol (dihydropristimerin). Mice received either a placebo or a celastrol analog (3.0 mg/kg) by intraperitoneal injection.
# (§1) Mice received either a placebo (PBS) or oridonin (3.0 mg/kg) by intraperitoneal injection.
# [2] = system: stem cell populations in bone marrow (cd34+, cd45+, Sca-1+ cells); test: FACS of cells expressing stem cell markers CD34, CD45, Sca-1 in bone marrow samples; format: in vivo, C57BL6/J mice
# Method: as §1
# mice = details: mouse, in vivo
# Method: Valproic acid was administered to C57BL6/J mice to determine the effect of valproic acid on stem cell populations in bone marrow and in blood. Mice received either a placebo or valproic acid (200 mg/kg) by intraperitoneal injection. […] Bone marrow samples were taken from both groups of mice at 24 hours after administration of the placebo or valproic acid. Blood samples were taken from both groups of mice at 72 hours after administration of the placebo or valproic acid. The bone marrow samples and blood samples were analyzed by FACS for cells expressing stem cell markers. To observe the effect of treatment with valproic acid, cells expressing the stem cell markers CD34, CD45, and Sca-1 in the bone marrow and blood samples, were quantitated as a percentage of the total populations in their respective samples (i.e., in the bone marrow sample and in the blood sample, respectively).
# [3] = system: stem cell populations in blood (cd34+, cd45+, Sca-1+ cells); test: FACS of cells expressing stem cell markers CD34, CD45, Sca-1 in blood samples; format: in vivo, C57BL6/J mice; details: valproic acid 200 mg/kg i.p.; 72 hours post treatment
# [4] = celastrol analog 3.0 mg/kg i.p., 24 hours post treatment (so in the source)
# [5] = celastrol analog 3.0 mg/kg i.p., 24 hours post treatment
# [6] = triptolide 400 μg/kg i.p., 24 hours post treatment
# [7] = triptolide 400 μg/kg i.p., 48 hours post treatment
# [8] = triptolide 400 μg/kg i.p., 72 hours post treatment
# [9] = valproic acid 200 mg/kg i.p., 72 hours post treatment
# [10] = valproic acid 200 mg/kg i.p., 24 hours post treatment
compound,measurement,setting,value
COC(=O)[C@]1(C)CC[C@]2(C)CC[C@]3(C)C4=CCc5c(cc(O)c(O)c5C)[C@]4(C)CC[C@@]3(C)[C@@H]2C1 [pristimerol],"Sca-1+ cells, percent of the population of blood cells",[1]; [4],about 0.25%
same,"cd34+ cells, percent of the population of blood cells",[1]; [4],about 0.4%
same,"cd45+ cells, percent of the population of blood cells",[1]; [4],about 0.06%
same,fold increase of percentage of Sca-1+ cells in blood over control,[1]; [4],~6 fold
same,fold increase of percentage of cd34+ cells in blood over control,[1]; [4],~3 fold
same,fold increase of percentage of cd45+ cells in blood over control,[1]; [4],~3 fold
same,"Sca-1+ cells, percent of the population of bone marrow cells",[2]; [5],about 0.28%
same,"cd34+ cells, percent of the population of bone marrow cells",[2]; [5],about 0.28%
same,"cd45+ cells, percent of the population of bone marrow cells",[2]; [5],about 0.16%
same,fold increase of percentage of Sca-1+ cells in bone marrow over control,[2]; [5],4-5 fold
same,fold increase of percentage of cd34+ cells in bone marrow over control,[2]; [5],greater than 4 fold
same,fold increase of percentage of cd45+ cells in bone marrow over control,[2]; [5],greater than 5 fold
CC(C)[C@]12O[C@H]1[C@@H]1O[C@]13[C@]1(O[C@H]1C[C@H]1C4=C(CC[C@@]13C)C(=O)OC4)[C@@H]2O [triptolide],"CD34-expressing cells, percent of the population of blood cells",[1]; [6],~1%
same,"Sca-1+ cells, percent of the population of blood cells",[1]; [6],~1%
same,"Sca-1+ cells, percent of cells in blood",[1]; [7],~2%
same,"cd34+ cells, percent of cells in blood",[1]; [7],~2%
same,"cd45+ cells, percent of the cells in blood",[1]; [7],about 0.2%
same,"Sca-1+ cells, percent of cells in blood",[1]; [8],~3%
same,"cd34+ cells, percent of cells in blood",[1]; [8],about 3%
same,"cd34+ cells, percent of the population of bone marrow cells",[2]; [6],~0.8%
same,fold increase in the proportion of Sca-1 stem cells in bone marrow vs untreated mice,[2]; [6],approximately 15 fold
same,fold increase of percentage of cd34+ cells in bone marrow over control,[2]; [6],~16 fold
same,fold increase of percentage of cd45+ cells in bone marrow vs untreated control,[2]; [6],about 3 fold
same,"sca-1+ stem cells, percent of bone marrow cell population",[2]; [6],0.75%
same,"cd34+ cells, percent of bone marrow cells",[2]; [7],0.3%
same,"cd45+ cells, percent in bone marrow",[2]; [7],about 0.07%
same,fold increase of percentage of cd34+ cells in bone marrow compared to control mice,[2]; [7],6 fold
same,"sca-1+ cells, percent of bone marrow cell population",[2]; [7],0.25%
same,"CD34 cells, percent in bone marrow",[2]; [8],0.65%
same,"Sca-1+ cells, percent in bone marrow",[2]; [8],about 0.5%
same,"cd45+ cells, percent in bone marrow",[2]; [8],~0.12%
CCCC(CCC)C(=O)O [valproic acid],"Sca-1+ cells, percent of the population of blood cells",[1]; [9],less than 0.4%
same,"cd34+ cells, percent of the population of blood cells",[1]; [9],greater than 0.4%
same,"cd45+ cells, percent of the population of blood cells",[1]; [9],less than 0.2%
same,fold increase of percentage of cd34+ cells in blood over control,[1]; [9],~2.6 fold
same,"CD34 cells, percent of the population of bone marrow cells",[2]; [10],about 0.2%
same,"Sca-1+ cells, percent of the population of bone marrow cells",[2]; [10],about 0.18%
same,"cd45+ cells, percent of the population of bone marrow cells",[2]; [10],about 0.08%
same,fold increase of percentage of Sca-1+ cells in bone marrow over control,[2]; [10],~6 fold
same,fold increase of percentage of cd34+ cells in bone marrow over control,[2]; [10],≥ 4 fold
same,fold increase of percentage of cd45+ cells in bone marrow over control,[2]; [10],≥ 3 fold
same,toxicity in mice,mice,not toxic
same,fold increase of percentage of Sca-1+ cells in blood over control,[3],~3 fold
same,fold increase of percentage of cd45+ cells in blood over control,[3],~4 fold
dihydrocelastrol diacetate,"Sca-1+ cells, percent of the population of blood cells",[1]; [4],about 1.4%
same,"cd34+ cells, percent of the population of blood cells",[1]; [4],1.5%
same,"cd45+ cells, percent of the population of blood cells",[1]; [4],about 0.4%
same,fold increase of percentage of Sca-1+ cells in blood over control,[1]; [4],~36 fold
same,fold increase of percentage of cd34+ cells in blood over control,[1]; [4],~10 fold
same,fold increase of percentage of cd45+ cells in blood over control,[1]; [4],~20 fold
same,"Sca-1+ cells, percent of the population of bone marrow cells",[2]; [5],about 0.17%
same,"cd34+ cells, percent of the population of bone marrow cells",[2]; [5],0.15%
same,change of percentage of cd45+ cells in bone marrow compared to untreated control,[2]; [5],decrease
same,fold increase of percentage of Sca-1+ cells in bone marrow over control,[2]; [5],~3 fold
same,fold increase of percentage of cd34+ cells in bone marrow over control,[2]; [5],~3 fold
